These results are taken from ChEMBL document CHEMBL5385912, “Macrocycles and Acyclic Cucurbit[n]urils as Pseudo[2]catenane Partners for Long-Acting Neuromuscular Blocks and Rapid Reversal In Vivo” (J Med Chem, 2024).

The term solubility denotes how much of the substance goes into solution per volume. High values mean much dissolved substance, low ones little dissolved substance. As a reminder, the MTD is the largest dose that counted as tolerated.

Each structure is given as a SMILES string. The source made the active and inactive calls. The rule behind the calls is not given here.

The test system of series [1] is Rattus norvegicus. The series is described as follows: Neuromuscular blocking in Sprague-Dawley rat assessed as inhibition of electrical stimulation induced twitch amplitude at 0.8 mg/kg, iv. It is filed as functional, organism-based.
Series [2] has as its system Rattus norvegicus. The series is described as follows: Neuromuscular blocking in Sprague-Dawley rat assessed as duration time to TOF ratio of 0.25 recovery at 3.5 mg/kg, iv. It is filed as functional.
A short description of series [3]: Solubility of compound in phosphate buffer. The series is classed as physicochemical.
For series [4], the system named is Rattus norvegicus. In words: Reversal of 2,27-dioxa-11,18,36,43-tetraza-8,21,33,46-tetrazoniaundecacyclo[46.2.2.23,6.213,16.223,26.228,31.238,41.18,11.118,21.133,36.143,46]hexahexaconta-1(50),3,5,8(64),9,13(63),14,16(62),19,21(61),23,25,28,30,33(56),34,38,40,44,46(53),48,51,54,57,59,65-hexacosaene tetrachloride induced neuromuscular block in Sprague-Dawley rat assessed as recovery time at 2.5 mg/kg, iv. It is filed as functional.

Series [5] concerns Rattus norvegicus. The series is described as follows: Reversal of 2,27-dioxa-11,18,36,43-tetraza-8,21,33,46-tetrazoniaundecacyclo[46.2.2.23,6.213,16.223,26.228,31.238,41.18,11.118,21.133,36.143,46]hexahexaconta-1(50),3,5,8(64),9,13(63),14,16(62),19,21(61),23,25,28,30,33(56),34,38,40,44,46(53),48,51,54,57,59,65-hexacosaene tetrachloride induced neuromuscular block in Sprague-Dawley rat assessed as recovery time at 10 mg/kg, iv. The series is classed as functional.

Series [6] is filed under the species Rattus norvegicus. In words: Neuromuscular blocking in Sprague-Dawley rat assessed as inhibition of electrical stimulation induced twitch amplitude. The series is classed as functional.
Series [7] in a line: Solubility of compound in Na2HPO4/NaH2PO4 buffer. It is filed as physicochemical.
In series [8] the test system is Rattus norvegicus. The series is described as follows: Reversal of 2,27-dioxa-11,18,36,43-tetraza-8,21,33,46-tetrazoniaundecacyclo[46.2.2.23,6.213,16.223,26.228,31.238,41.18,11.118,21.133,36.143,46]hexahexaconta-1(50),3,5,8(64),9,13(63),14,16(62),19,21(61),23,25,28,30,33(56),34,38,40,44,46(53),48,51,54,57,59,65-hexacosaene tetrachloride induced neuromuscular block in Sprague-Dawley rat assessed as recovery time at 0.36 mg/kg, iv. The series is classed as functional.

Series [9] deals with Rattus norvegicus. In words: Reversal of 2,27-dioxa-11,18,36,43-tetraza-8,21,33,46-tetrazoniaundecacyclo[46.2.2.23,6.213,16.223,26.228,31.238,41.18,11.118,21.133,36.143,46]hexahexaconta-1(50),3,5,8(64),9,13(63),14,16(62),19,21(61),23,25,28,30,33(56),34,38,40,44,46(53),48,51,54,57,59,65-hexacosaene tetrachloride induced neuromuscular block in Sprague-Dawley rat assessed as recovery time at 20 mg/kg, iv. The series is classed as functional.

The subject of series [10] is H9c2. The series is described as follows: Cytotoxicity against rat H9C2 cells at 512 ug/ml incubated for 24 hrs by CCK8 assay. The series is classed as toxicity, cell-based. Particulars: h9c2, 24 h, dose 512 µg/ml. On the technique in general: Tetrazolium assays rely on reduction of a dye to a coloured formazan, in cell work by metabolically active cells.
The test system of series [11] is L02. The series is described as follows: Cytotoxicity against L02 cells at 512 ug/ml incubated for 24 hrs by CCK8 assay. The series is classed as toxicity, cell-based. The conditions noted are these: human, l02, 24 h, dose 512 µg/ml.
Series [12] relates to Erythrocyte. In words: Hemolysis in human RBC. It is filed as toxicity, cell-based.
The test system of series [13] is Erythrocyte. In words: Hemolysis in rat RBC. It is filed as toxicity, cell-based.
For series [14], the system named is Rattus norvegicus. In words: Reversal of 2,27-dioxa-11,18,36,43-tetraza-8,21,33,46-tetrazoniaundecacyclo[46.2.2.23,6.213,16.223,26.228,31.238,41.18,11.118,21.133,36.143,46]hexahexaconta-1(50),3,5,8(64),9,13(63),14,16(62),19,21(61),23,25,28,30,33(56),34,38,40,44,46(53),48,51,54,57,59,65-hexacosaene tetrachloride induced neuromuscular block in Sprague-Dawley rat assessed as recovery time at 50 mg/kg, iv after 1 min. The series is classed as functional.

Series [15] is described as follows: Toxicity in ICR mouse assessed as maximal tolerated dose. The conditions noted are these: in vivo.
Series [16] in a line: Toxicity in ICR mouse assessed as weight loss at 400 mg/kg, iv measured after 1 day. The series is classed as organism-based. Particulars: in vivo, 24 h.
Series [17] is described as follows: Toxicity in ICR mouse assessed as heart abnormality at 200 to 400 mg/kg after 14 days by H and E staining based optical microscopic analysis. The series is classed as organism-based. Particulars: in vivo, 336 h, dose 200-400 mg/kg, time 14 day.
The nature of series [18]: Toxicity in ICR mouse assessed as liver abnormality at 200 to 400 mg/kg after 14 days by H and E staining based optical microscopic analysis. Particulars: in vivo, 336 h, dose 200-400 mg/kg, time 14 day. The series is classed as organism-based.
A short description of series [19]: Toxicity in ICR mouse assessed as spleen abnormality at 200 to 400 mg/kg after 14 days by H and E staining based optical microscopic analysis. The conditions noted are these: in vivo, 336 h, dose 200-400 mg/kg, time 14 day. It is filed as organism-based.
The nature of series [20]: Toxicity in ICR mouse assessed as lung abnormality at 200 to 400 mg/kg after 14 days by H and E staining based optical microscopic analysis. It is filed as organism-based. The conditions noted are these: in vivo, 336 h, dose 200-400 mg/kg, time 14 day.
A short description of series [21]: Toxicity in ICR mouse assessed as kidney abnormality at 200 to 400 mg/kg after 14 days by H and E staining based optical microscopic analysis. It is filed as organism-based. Particulars: in vivo, 336 h, dose 200-400 mg/kg, time 14 day.
For series [22], the system named is Rattus norvegicus. The series is described as follows: Neuromuscular blocking in Sprague-Dawley rat assessed as duration time to TOF ratio of 0.25 recovery at 1.6 mg/kg, iv. The series is classed as functional.
For series [23], the system named is Rattus norvegicus. The series is described as follows: Neuromuscular blocking in Sprague-Dawley rat assessed as duration time to TOF ratio of 0.25 recovery at 2.4 mg/kg, iv. The series is classed as functional.
The nature of series [24]: Toxicity in Sprague-Dawley rat at 9 mg/kg, iv measured after 1 hr. The series is classed as organism-based. The conditions noted are these: in vivo.

As for `c1ccc(C[n+]2ccn(Cc3ccc(Oc4ccc(Cn5cc[n+](Cc6ccccc6)c5)cc4)cc3)c2)cc1`, the result in series [1] was inactive.

As for `C=CC[N+]1([C@H]2C[C@H]3[C@@H]4CC[C@H]5C[C@H](O)[C@@H](N6CCOCC6)C[C@]5(C)[C@H]4CC[C@]3(C)[C@H]2OC(C)=O)CCCC1` [ROCURONIUM], the Time in series [2] turned out to be 497 s.

Take `C[C@]12N3Cc4c(c(OCCCS(=O)(=O)[O-])c5ccccc5c4OCCCS(=O)(=O)[O-])CN1C(=O)N1CN4C(=O)N5CN6C(=O)N7CN8C(=O)N9Cc%10c(c(OCCCS(=O)(=O)[O-])c%11ccccc%11c%10OCCCS(=O)(=O)[O-])CN%10C(=O)N(CN%11C(=O)N(CN%12C(=O)N(CN(C3=O)[C@]12C)[C@@H]4[C@H]%125)[C@@H]6[C@H]%117)[C@]8(C)[C@@]9%10C.[Na+].[Na+].[Na+].[Na+]`: the concentration in solution in [3] (solubility) was 29.5 mg/mL. Besides, the Time in series [4] is recorded as 215 s; in series [5] it was 18 s.

In series [3], `C[C@]12N3Cc4c(OCCCC(=O)[O-])ccc(OCCCC(=O)[O-])c4CN1C(=O)N1CN4C(=O)N5CN6C(=O)N7CN8C(=O)N9Cc%10c(OCCCC(=O)[O-])ccc(OCCCC(=O)[O-])c%10CN%10C(=O)N(CN%11C(=O)N(CN%12C(=O)N(CN(C3=O)[C@]12C)[C@@H]4[C@H]%125)[C@@H]6[C@H]%117)[C@]8(C)[C@@]9%10C.[Na+].[Na+].[Na+].[Na+]` registered a solubility of 549 mg/mL. The results for the Time in [4] and in series [5] were 411 s and 18 s, respectively.

`[Cl-].[Cl-].[Cl-].[Cl-].c1cc2ccc1Cn1cc[n+](c1)Cc1ccc(cc1)-c1ccc(cc1)C[n+]1ccn(c1)Cc1ccc(cc1)Cn1cc[n+](c1)Cc1ccc(cc1)-c1ccc(cc1)C[n+]1ccn(c1)C2`: in [6], the ED90 was 1.07 mg/kg. Also, the result in series [1] was inactive. This compound also showed a solubility in series [7] of 21 mg/mL.

On to `CN(C)C(=O)Oc1cccc([N+](C)(C)C)c1` [NEOSTIGMINE], for which the Time in [8] came out at 694 s.

As to `c1cc2ccc1C[n+]1ccc(cc1)-c1cc[n+](cc1)Cc1ccc(cc1)C[n+]1ccc(cc1)-c1cc[n+](cc1)C2`, in series [1], the outcome was inactive.

Turning to `C[C@]12N3Cc4c(c(OCCCC(=O)[O-])c5ccccc5c4OCCCC(=O)[O-])CN1C(=O)N1CN4C(=O)N5CN6C(=O)N7CN8C(=O)N9Cc%10c(c(OCCCC(=O)[O-])c%11ccccc%11c%10OCCCC(=O)[O-])CN%10C(=O)N(CN%11C(=O)N(CN%12C(=O)N(CN(C3=O)[C@]12C)[C@@H]4[C@H]%125)[C@@H]6[C@H]%117)[C@]8(C)[C@@]9%10C.[Na+].[Na+].[Na+].[Na+]`, the solubility in [3] is 293 mg/mL. Besides, the values for the Time in series [4], in series [5] and in [9] were 205 s, 16 s and 17 s, respectively. Further, the Activity result is “Non-Toxic” in series [10]; “Non-Toxic” in series [11]; “Non-Toxic” in series [12]; “Non-Toxic” in series [13]; 100% in series [14]; “Toxic” in series [16]. For the same compound, the Activity result in [17], in series [18], in series [19], in series [20] and in series [21] was “Non-Toxic” each time. Moreover, the MTD in series [15] is 550 mg/kg.

Take `COc1ccc(Cn2cc[n+](Cc3ccc(C[n+]4ccn(Cc5ccc(OC)cc5)c4)cc3)c2)cc1`: in series [1], the outcome was inactive.

In the case of `[Cl-].[Cl-].[Cl-].[Cl-].c1cc2ccc1Cc1ccc(cc1)C[n+]1ccn(c1)Cc1ccc(cc1)Cn1cc[n+](c1)Cc1ccc(cc1)Cc1ccc(cc1)C[n+]1ccn(c1)Cc1ccc(cc1)Cn1cc[n+](c1)C2`, the ED90 in series [6] is 1.16 mg/kg. Moreover, the outcome in series [1] was inactive. The same compound had a solubility in series [7] of 58 mg/mL.

Regarding `Cc1c(C)c(OCCCC(=O)[O-])c2c(c1OCCCC(=O)[O-])CN1C(=O)N3CN4C(=O)N5CN6C(=O)N7CN8C(=O)N9Cc%10c(c(OCCCC(=O)[O-])c(C)c(C)c%10OCCCC(=O)[O-])CN%10C(=O)N(CN%11C(=O)N(CN%12C(=O)N(CN%13C(=O)N(C2)[C@]1(C)[C@]%133C)[C@@H]4[C@@H]5%12)[C@@H]6[C@@H]7%11)[C@]8(C)[C@]%109C.[Na+].[Na+].[Na+].[Na+]`, the concentration in solution in series [3] (solubility) came to 400 mg/mL. For the same compound, the Time in series [4] is 259 s; in [5] it was 16 s.

Regarding `O=C(O)CCSC[C@H]1O[C@@H]2O[C@H]3[C@H](O)[C@@H](O)[C@@H](O[C@H]4[C@H](O)[C@@H](O)[C@@H](O[C@H]5[C@H](O)[C@@H](O)[C@@H](O[C@H]6[C@H](O)[C@@H](O)[C@@H](O[C@H]7[C@H](O)[C@@H](O)[C@@H](O[C@H]8[C@H](O)[C@@H](O)[C@@H](O[C@H]9[C@H](O)[C@@H](O)[C@@H](O[C@H]1[C@H](O)[C@H]2O)O[C@@H]9CSCCC(=O)O)O[C@@H]8CSCCC(=O)O)O[C@@H]7CSCCC(=O)O)O[C@@H]6CSCCC(=O)O)O[C@@H]5CSCCC(=O)O)O[C@@H]4CSCCC(=O)O)O[C@@H]3CSCCC(=O)O`, in series [9], the Time was 1175 s.

Take `c1cc2ccc1Cn1cc[n+](c1)Cc1ccc(cc1)C[n+]1ccn(c1)Cc1ccc(cc1)O2`: the outcome in series [1] was inactive.

As to `[Cl-].[Cl-].[Cl-].[Cl-].c1cc2ccc1Cn1cc[n+](c1)Cc1ccc(cc1)Oc1ccc(cc1)C[n+]1ccn(c1)Cc1ccc(cc1)Cn1cc[n+](c1)Cc1ccc(cc1)Oc1ccc(cc1)C[n+]1ccn(c1)C2`, in series [6], the ED90 worked out at 0.8 mg/kg. Further, the Time in series [22] stood at 1785 s; in series [23], 4965 s. Further, the Activity entry in series [10], in series [11], in series [12], in series [13] and in [24] was “Non-Toxic” each time. This compound returned a solubility in series [7] of 78 mg/mL.
